As usually defined, the IC50 is the concentration needed to halve the response being measured. In general, inhibition refers to the drop in the measured response relative to a control, in per cent.

Drawing on ChEMBL document CHEMBL1130150, “Conformationally restricted analogues of trimethoprim: 2,6-diamino-8-substituted purines as potential dihydrofolate reductase inhibitors from Pneumocystis carinii and Toxoplasma gondii” (J Med Chem, 1997), this text covers IC50 and inhibition for 23 molecules.

Assay [1] concerns the target T1, Dihydrofolate reductase (Rattus norvegicus, UniProt Q920D2).
T1 sequence (Q920D2 whole entry): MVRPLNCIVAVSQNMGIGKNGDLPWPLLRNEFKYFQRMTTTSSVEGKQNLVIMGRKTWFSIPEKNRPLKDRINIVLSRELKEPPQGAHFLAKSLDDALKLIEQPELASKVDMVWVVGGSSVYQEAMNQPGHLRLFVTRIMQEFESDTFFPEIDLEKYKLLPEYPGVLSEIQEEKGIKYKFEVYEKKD
Description: Inhibition of rat liver dihydrofolate reductase

Assay [2] has as its target T2, Dihydrofolate reductase (Pneumocystis carinii, UniProt P16184).
T2 sequence (P16184 whole entry): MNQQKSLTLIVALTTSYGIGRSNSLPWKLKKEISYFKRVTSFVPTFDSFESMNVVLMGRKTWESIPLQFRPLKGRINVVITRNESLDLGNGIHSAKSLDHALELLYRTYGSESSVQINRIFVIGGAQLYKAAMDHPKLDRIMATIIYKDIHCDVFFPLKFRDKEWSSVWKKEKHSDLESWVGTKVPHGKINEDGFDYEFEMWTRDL
Description: Inhibition of Pneumocystis carinii dihydrofolate reductase

For assay [3], the target named is T3, Dihydrofolate reductase (Rattus norvegicus) (UniProt Q920D2).
T3 sequence (whole entry): T1 sequence (Q920D2 whole entry)
Description: Percent inhibition against rat liver Dihydrofolate reductase. Further details: concentration or dose not given beside the values. Particulars: concentration not given here.

The target in assay [4] is T4, Bifunctional dihydrofolate reductase-thymidylate synthase (Toxoplasma gondii, UniProt Q07422).
T4 sequence (Q07422 whole entry): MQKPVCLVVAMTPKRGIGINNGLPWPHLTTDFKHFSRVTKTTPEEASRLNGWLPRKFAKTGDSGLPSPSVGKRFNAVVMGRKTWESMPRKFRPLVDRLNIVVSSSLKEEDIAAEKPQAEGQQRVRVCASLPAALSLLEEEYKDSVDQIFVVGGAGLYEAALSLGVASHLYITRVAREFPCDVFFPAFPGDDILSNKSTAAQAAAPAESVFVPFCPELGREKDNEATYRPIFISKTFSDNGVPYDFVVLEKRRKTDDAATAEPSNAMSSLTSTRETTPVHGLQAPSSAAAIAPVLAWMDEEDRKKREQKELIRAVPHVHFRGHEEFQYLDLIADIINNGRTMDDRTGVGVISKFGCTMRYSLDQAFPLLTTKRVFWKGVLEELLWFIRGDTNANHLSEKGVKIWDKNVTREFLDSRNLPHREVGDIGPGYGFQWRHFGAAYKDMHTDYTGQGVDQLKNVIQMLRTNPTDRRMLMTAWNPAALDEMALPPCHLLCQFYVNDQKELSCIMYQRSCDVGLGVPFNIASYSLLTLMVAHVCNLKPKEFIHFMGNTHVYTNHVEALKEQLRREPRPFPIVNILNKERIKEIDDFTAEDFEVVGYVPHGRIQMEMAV
The assay is described as follows: Inhibition of Toxoplasma gondii dihydrofolate reductase.

The target of assay [5] is T5, Bifunctional dihydrofolate reductase-thymidylate synthase (Toxoplasma gondii) (UniProt Q07422).
T5 sequence (whole entry): T4 sequence (Q07422 whole entry)
The assay is described as follows: Percent inhibition against Toxoplasma gondii Dihydrofolate reductase. Particulars: concentration not given here.

For `COc1ccc(OC)c(NCc2nc3c(N)nc(N)nc3[nH]2)c1`, the IC50 came out at 29 µM on Dihydrofolate reductase [1], 29 µM against Dihydrofolate reductase [2] and 49 µM in assay [4]. In addition, in assay [3], the inhibition was 15%.

For `COc1cc(OC)c(-c2nc3nc(N)nc(N)c3[nH]2)c(OC)c1`, the IC50 on Dihydrofolate reductase [1] amounted to 1.88 µM; at Dihydrofolate reductase [2] it was 31.5 µM; in assay [4] it was 0.84 µM.

For `Nc1nc(N)c2[nH]c(-c3ccc(Cl)c(Cl)c3)nc2n1`, the IC50 on Dihydrofolate reductase [1] turned out to be 252 µM; in assay [4], 6.7 µM.

In the case of `COc1cc(OC)cc(-c2nc3nc(N)nc(N)c3[nH]2)c1`, the IC50 against Dihydrofolate reductase [1] came out at 32.4 µM; in assay [4], 3 µM.

Take `COc1cc(-c2nc3c(N)nc(N)nc3[nH]2)cc(OC)c1O`: the IC50 at Dihydrofolate reductase [1] was found to be 15.3 µM; against Dihydrofolate reductase [2] it was 68 µM; in assay [4], 1 µM.

As to `COc1ccc(-c2nc3[nH]c(N)nc(N)c-3n2)c2ccccc12`, the IC50 (against Dihydrofolate reductase [1]; against Dihydrofolate reductase [2]; in assay [4]) was 13 µM in each case. For the same molecule, the figures for the inhibition in assay [3] and in assay [5] were 15% and 10%, respectively.

As to `Nc1nc(N)c2nc(C3c4ccccc4-c4ccccc43)[nH]c2n1`, half-maximal inhibition against Dihydrofolate reductase [2] (IC50) was put at 35 µM.

Take `Nc1nc(N)c2nc(-c3ccc4ccccc4c3)[nH]c2n1`: the 50% inhibitory concentration (IC50) on Dihydrofolate reductase [1] turned out to be 280 µM; at Dihydrofolate reductase [2] it was 113 µM; in assay [4], 27 µM.

With `COc1cc(-c2nc3nc(N)nc(N)c3[nH]2)cc(OC)c1OC`, the values for the IC50 (against Dihydrofolate reductase [1]; at Dihydrofolate reductase [2]; in assay [4]) were 13 µM, 59.4 µM and 2.2 µM, respectively.

Regarding `COc1cc(-c2nc3nc(N)nc(N)c3[nH]2)c([N+](=O)[O-])cc1OC`, the IC50 on Dihydrofolate reductase [1] and on Dihydrofolate reductase [2] was 25 µM each time.

Regarding `Nc1nc(N)c2[nH]c(CSc3ccc4ccccc4c3)nc2n1`, the results for the IC50 (against Dihydrofolate reductase [1]; against Dihydrofolate reductase [2]; in assay [4]) were 107 µM, 105 µM and 45 µM, respectively.

With `COc1cc(NCc2nc3[nH]c(N)nc(N)c-3n2)cc(OC)c1OC`, the results for the inhibition in assay [3] and in assay [5] were 19% and 5%, respectively.

For the molecule `COc1ccc(-c2nc3c(N)nc(N)nc3[nH]2)c(OC)c1OC`, the IC50 at Dihydrofolate reductase [1] was determined as 3.7 µM; at Dihydrofolate reductase [2], 17 µM; in assay [4], 1.8 µM.

Turning to `COc1ccc(OC)c(-c2nc3nc(N)nc(N)c3[nH]2)c1`, the results for the IC50 (against Dihydrofolate reductase [1]; on Dihydrofolate reductase [2]; in assay [4]) were 3.5 µM, 37.4 µM and 1.7 µM, respectively.

For the molecule `Nc1nc(N)c2nc(-c3ccccc3)[nH]c2n1`, the figures for the IC50 (on Dihydrofolate reductase [1]; against Dihydrofolate reductase [2]; in assay [4]) were 59.9 µM, 153 µM and 28 µM, respectively.

In the case of `Nc1nc(N)c2[nH]c(-c3c(Cl)cccc3Cl)nc2n1`, the IC50 (on Dihydrofolate reductase [1]; on Dihydrofolate reductase [2]; in assay [4]) was 11 µM in each case. Further, the inhibition was found to be 4% in assay [3] and 6% in assay [5].

Regarding `Nc1nc(N)c2[nH]c(-c3ccncc3)nc2n1`, the IC50 amounted to 18 µM against Dihydrofolate reductase [1], 18 µM at Dihydrofolate reductase [2] and 20 µM in assay [4]. In addition, the inhibition turned out to be 0% in assay [3] and 14% in assay [5].

Regarding `Nc1nc(N)c2[nH]c(-c3ccc(-c4ccccc4)cc3)nc2n1`, the figures for the IC50 (against Dihydrofolate reductase [1]; against Dihydrofolate reductase [2]; in assay [4]) were 30.1 µM, 605 µM and 32.9 µM, respectively.

As to `COc1ccc(-c2nc3nc(N)nc(N)c3[nH]2)c(OC)c1`, the results for the IC50 (against Dihydrofolate reductase [1]; against Dihydrofolate reductase [2]; in assay [4]) were 0.9 µM, 14 µM and 2.4 µM, respectively.

Regarding `COc1cc(-c2nc3[nH]c(N)nc(N)c-3n2)c([N+](=O)[O-])cc1OC`, the inhibition in assay [3] was found to be 14%.

Turning to `COc1cc(OC)c(-c2nc3nc(N)nc(N)c3[nH]2)cc1OC`, the values for the IC50 (at Dihydrofolate reductase [1]; at Dihydrofolate reductase [2]; in assay [4]) were 7 µM, 22 µM and 1.5 µM, respectively.

`Nc1nc(N)c2nc(Cc3ccccc3)[nH]c2n1`: the IC50 on Dihydrofolate reductase [1] stood at 1.6 µM; in assay [4] it was 0.5 µM.

Regarding `COc1ccc(-c2nc3c(N)nc(N)nc3[nH]2)cc1OC`, the IC50 stood at 52.3 µM against Dihydrofolate reductase [1] and 12 µM at Dihydrofolate reductase [2].
